Test results: patent publication US8163739B2, “2-arylthiazole-4-carboxamide derivatives, their preparation and use as pharmaceuticals” (Bayer Pharma Aktiengesellschaft, priority 2007, dated 2012)

test system: TLR7; test: TLR-induced cytokine release in human peripheral blood mononuclear cells (PBMC), TNF-alpha ELISA; format: cell-based; conditions: 18 hours incubation, TLR7 ligand, TNF-alpha by ELISA, read-out: EC50 (TNF-α TLR7)
Description: TLR-induced Cytokine Release in Human “Peripheral Blood Mononuclear Cells” (PBMC)
PBMCs isolated from human whole blood are stimulated using a TLR ligand.
The cytokine determination is carried out by means of ELISA kits; a proliferation/cell metabolism determination is carried out using Alamar Blue.
For the cell preparation, about 200 ml of blood are treated with an anticoagulant (e.g. citrate Monovettes). Per Leucosep tube, 15 ml of Histopaque (room temperature, RT) are poured in and forced downwards through the inserted frit by brief initial centrifugation (one minute at 1000×g, RT). 20 ml of blood are added to the tubes prepared in this way and centrifuged at 800×g for 15 minutes (RT). After centrifugation, the following layered arrangement results from the top to the bottom:
plasma-PBMC-Histopaque-filter disc-Histopaque-erythrocytes and granulocytes. The supernatant plasma is aspirated. The PBMC are transferred together with the underlying Histopaque to a new 50 ml tube, the contents of two Leucosep tubes always being added to one 50 ml tube. The 50 ml tubes are then filled to 50 ml with PBS. This cell suspension is centrifuged at 300×g (RT) for 10 minutes.
The liquid supernatant is tipped off and the cell pellet is resuspended with a little PBS and subsequently filled to 50 ml with PBS. This washing step is repeated twice. The resulting pellet is taken up in a defined volume of medium (with additives). For the testing of the substances, PBMC are incubated for 18 hours with titrated concentrations of the test substances, e.g. in the presence or absence of TLR7 or TLR9 ligands. On the next day, the supernatants are investigated for the content of TNF-alpha or other cyto- or chemokines by means of specific ELISA. The metabolic activity of the treated cells is determined with the aid of Alamar Blue.

| Structure (SMILES) | EC50 |
| --- | --- |
| CN1CCc2c(sc(NC(=O)c3csc(-c4ccc5c(c4)CCO5)n3)c2C(N)=O)C1 [Example 2.5, 2-{[2-(2,3-Dihydrobenzofuran-5-yl)thiazole-4-carbonyl]amino}-6-methyl-4,5,6,7-tetrahydrothieno[2,3-c]pyridine-3-carboxamide] | 1100 nM |
| Cn1cc(NC(=O)c2csc(-c3cccc(S(C)(=O)=O)c3)n2)c(C(N)=O)n1 [Example 1.1, 2-(3-Methanesulphonylphenyl)thiazole-4-(3-carbamoyl-1-methyl-1H-pyrazol-4-yl)carboxamide] | 85 nM |
| Cn1ncc(NC(=O)c2csc(-c3ccc4c(c3)CCO4)n2)c1C(N)=O [Example 2.1, N-[5-(Aminocarbonyl)-1-methyl-1H-pyrazol-4-yl]-2-(2,3-dihydro-5-benzofuranyl)-4-thiazolecarboxamide] | 1200 nM |

Continued, values first:

| EC50 | Structure (SMILES) |
| --- | --- |
| 300 nM | NC(=O)c1ccccc1NC(=O)c1csc(-c2ccc3c(c2)OCO3)n1 [Example 3.1, N-[2-(Aminocarbonyl)phenyl]-2-(3,4-methylenedioxyphenyl)-4-thiazolecarboxamide] |
| 3400 nM | CS(=O)(=O)c1cccc(-c2nc(C(=O)Nc3ccccc3C(N)=O)cs2)c1 [Example 3.2, N-[2-(Aminocarbonyl)phenyl]-2-(3-methylsulphonylphenyl)-4-thiazole-carboxamide] |
| 120 nM | COc1ccc(-c2nc(C(=O)Nc3ccccc3C(N)=O)cs2)cc1F [Example 3.4, N-[2-(Aminocarbonyl)phenyl]-2-(3-fluoro-4-methoxyphenyl)-4-thiazole-carboxamide] |
